Source: paper PMC11011439, “Influence of Molecular Design on the Tumor Targeting and Biodistribution of PSMA-Binding Tracers Labeled with Technetium-99m” (International Journal of Molecular Sciences, 2024)

Key:
[1] = of the [99mTc]Tc-labeled ligand; cited from earlier work
PSMA = molecular target: T1, PSMA (Homo sapiens, UniProt Q04609); experiment: Real-time binding kinetics on living PC3-pip cells (LigandTracer Yellow); settings: 5 nM tracer, 1:2 interaction model; for Kd: read-out: KD1
T1 construct: expressed in transfected cells; host or cells: PC3-pip cells (from Prof. Martin G. Pomper, Johns Hopkins University)
Experimental: The binding kinetics of [^99mTc]Tc-labeled BQ0411, BQ0412, and BQ0413 were measured in real time using LigandTracer Yellow Instruments (Ridgeview Instruments AB, Uppsala, Sweden) on PC3-pip cells, as described earlier. The activity binding was recorded at 5 nM on the radiolabeled tracers for 150 min. After measuring the binding kinetics, the medium containing the labeled tracer was replaced with fresh medium, and the dissociation was monitored over 7 h. […]

[2] = Octanol/water distribution coefficient (LogD); format: physicochemical; settings: n-octanol / Milli-Q water
Experimental: The LogD was determined experimentally based on the procedure described earlier. Briefly, the radiolabeled compound of interest was added to a LoBind Eppendorf tube (Eppendorf, Hamburg, Germany) containing Milli-Q water (500 μL) and n-octanol (500 μL), and the mixture was vortexed and centrifuged. Thereafter, three fractions from each phase were collected and the activity was measured using a gamma counter. The LogD was calculated by dividing the average activity measured in octanol by the average activity measured in water.

[3] = test system: PSMA-expressing prostate cancer xenografts (PC3-pip); experiment: Biodistribution and tumor targeting in PC3-pip tumor-bearing mice; format: in vivo, BALB/c nu/nu mice; settings: 3 h pi
Experimental: PSMA-expressing prostate cancer xenografts were implanted in BALB/c nu/nu mice by subcutaneous injection of PC3-pip cell suspension in PBS (10^7 cells/animal in 100 µL). The average tumor weight was 0.3 ± 0.2 g at the time of the experiment. Four mice per data point were used. Mice were intravenously injected with 5 nmol of the radiotracer (60 kBq, the mass of the injected compound was adjusted with an unlabeled tracer). The mice were euthanized 3 h pi, and the samples were treated as described above.

[4] = Biodistribution in NMRI mice; format: in vivo; settings: for activity in carcass / activity in intestines with content / uptake in blood / uptake in kidney / uptake in liver / uptake in lung / uptake in salivary glands / uptake in spleen / uptake in stomach: 40 pmol/mouse iv
Experimental: Four NMRI mice were intravenously injected with 40 pmol of the radiotracer (60 kBq, the mass of the injected compound was adjusted with an unlabeled tracer). The mice were euthanized with a lethal intraperitoneal injection of ketamine/xylazine, followed by exsanguination at 3 and 24 h post-injection (pi). The organs of interest were collected, weighed, and measured for their activity content using a gamma counter. The uptake activity in organs was calculated as the percentage of injected activity per gram (%IA/g) for the blood, salivary glands, lungs, liver, spleen, stomach, and kidneys and as %IA for the remaining carcass and the rest of the intestines with content.

T1 sequence (Q04609 whole entry): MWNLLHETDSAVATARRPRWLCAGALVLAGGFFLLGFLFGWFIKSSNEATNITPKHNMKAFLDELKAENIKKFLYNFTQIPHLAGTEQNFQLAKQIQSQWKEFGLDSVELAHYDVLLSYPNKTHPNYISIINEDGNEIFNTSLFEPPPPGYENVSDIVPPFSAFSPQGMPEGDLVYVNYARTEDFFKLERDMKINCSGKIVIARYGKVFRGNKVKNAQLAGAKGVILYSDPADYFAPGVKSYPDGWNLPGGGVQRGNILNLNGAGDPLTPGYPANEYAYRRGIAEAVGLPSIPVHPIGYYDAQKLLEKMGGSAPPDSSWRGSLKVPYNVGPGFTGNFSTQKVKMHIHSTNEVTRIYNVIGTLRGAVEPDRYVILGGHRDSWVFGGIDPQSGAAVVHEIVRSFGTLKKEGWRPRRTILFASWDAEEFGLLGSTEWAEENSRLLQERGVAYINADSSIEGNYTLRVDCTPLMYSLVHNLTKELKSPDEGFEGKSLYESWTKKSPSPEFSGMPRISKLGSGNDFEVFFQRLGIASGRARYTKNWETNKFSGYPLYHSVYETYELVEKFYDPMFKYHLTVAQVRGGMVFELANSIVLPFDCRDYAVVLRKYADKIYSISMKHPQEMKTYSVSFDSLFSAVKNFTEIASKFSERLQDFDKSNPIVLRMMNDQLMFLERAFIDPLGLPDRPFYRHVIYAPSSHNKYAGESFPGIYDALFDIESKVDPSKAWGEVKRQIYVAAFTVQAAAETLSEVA

CC(=O)N[C@@H](CCCCNC(=O)CNC(=O)CNC(=O)CNC(=O)CNC(=O)CS)C(=O)NCCCCCCCC(=O)N[C@@H](Cc1ccc(O)cc1)C(=O)N[C@@H](Cc1ccc2ccccc2c1)C(=O)NCCCC[C@H](NC(=O)N[C@@H](CCC(=O)O)C(=O)O)C(=O)O [BQ0411]
overall charge [1]: −1

CC(=O)N[C@@H](CCCCNC(=O)CNC(=O)CNC(=O)CNC(=O)CS)C(=O)NCCCCCCCC(=O)N[C@@H](Cc1ccc(O)cc1)C(=O)N[C@@H](Cc1ccc2ccccc2c1)C(=O)NCCCC[C@H](NC(=O)N[C@@H](CCC(=O)O)C(=O)O)C(=O)O [BQ0412]
overall charge [1]: −1

CC(=O)N[C@@H](CCCCNC(=O)CNC(=O)C(CCC(=O)O)NC(=O)C(CCC(=O)O)NC(=O)C(CCC(=O)O)NC(=O)CS)C(=O)NCCCCCCCC(=O)N[C@@H](Cc1ccc(O)cc1)C(=O)N[C@@H](Cc1ccc2ccccc2c1)C(=O)NCCCC[C@H](NC(=O)N[C@@H](CCC(=O)O)C(=O)O)C(=O)O (stereo partly drawn) [BQ0413]
overall charge [1]: −4

CC(=O)NC(CCCCNC(=O)CNC(=O)C[N]1C(=O)C[N]2C(=O)C[N]3C(=O)C[S][TcH]132=[O])C(=O)NCCCCCCCC(=O)NC(Cc1ccc(O)cc1)C(=O)NC(Cc1ccc2ccccc2c1)C(=O)NCCCCC(NC(=O)NC(CCC(=O)O)C(=O)O)C(=O)O (stereo not drawn) [[^99mTc]Tc-BQ0411]
Kd (PSMA): 0.604 nM

CC(=O)N[C@@H](CCCCNC(=O)C[N]1C(=O)C[N]2C(=O)C[N]3C(=O)C[S][TcH]132=[O])C(=O)NCCCCCCCC(=O)N[C@@H](Cc1ccc(O)cc1)C(=O)N[C@@H](Cc1ccc2ccccc2c1)C(=O)NCCCC[C@H](NC(=O)N[C@@H](CCC(=O)O)C(=O)O)C(=O)O [[^99mTc]Tc-BQ0412]
Kd (PSMA): 0.44 nM

CC(=O)N[C@@H](CCCCNC(=O)CNC(=O)C(CCC(=O)O)[N]1C(=O)C(CCC(=O)O)[N]2C(=O)C(CCC(=O)O)[N]3C(=O)C[S][99Tc-]312=[O])C(=O)NCCCCCCCC(=O)N[C@@H](Cc1ccc(O)cc1)C(=O)N[C@@H](Cc1ccc2ccccc2c1)C(=O)NCCCC[C@H](NC(=O)N[C@@H](CCC(=O)O)C(=O)O)C(=O)O (stereo partly drawn) [[^99mTc]Tc-BQ0413]
ka1 (PSMA): 33000 M⁻¹ s⁻¹
ka2 (PSMA): 2.9e+08 M⁻¹ s⁻¹
kd1 (PSMA): 2.9e-06 s⁻¹
kd2 (PSMA): 2.3e-09 s⁻¹
logD (octanol–water distribution coefficient) [2]: −2.5 ± 0.1
activity in carcass ([3]; 5 nmol/mouse iv): 1.7 ± 0.3 %IA/sample
activity in intestines with content ([3]; 5 nmol/mouse iv): 1.7 ± 0.2 %IA/sample
uptake in blood ([3]; 5 nmol/mouse iv): 0.17 ± 0.04 %IA/g
uptake in bone ([3]; 5 nmol/mouse iv): 0.2 ± 0.1 %IA/g
uptake in kidney ([3]; 5 nmol/mouse iv): 9 ± 2 %IA/g
uptake in liver ([3]; 5 nmol/mouse iv): 0.3 ± 0.1 %IA/g
uptake in lung ([3]; 5 nmol/mouse iv): 0.3 ± 0.1 %IA/g
uptake in muscle ([3]; 5 nmol/mouse iv): 0.06 ± 0.02 %IA/g
uptake in pancreas ([3]; 5 nmol/mouse iv): 0.13 ± 0.02 %IA/g
uptake in salivary glands ([3]; 5 nmol/mouse iv): 0.5 ± 0.1 %IA/g
uptake in small intestine ([3]; 5 nmol/mouse iv): 0.2 ± 0.1 %IA/g
uptake in spleen ([3]; 5 nmol/mouse iv): 0.9 ± 0.5 %IA/g
uptake in stomach ([3]; 5 nmol/mouse iv): 0.6 ± 0.2 %IA/g
uptake in tumor ([3]; 5 nmol/mouse iv): 17 ± 3 %IA/g
tumor-to-blood ratio ([3]; 5 nmol/mouse): 94 ± 3
tumor-to-bone ratio ([3]; 5 nmol/mouse): 114 ± 29
tumor-to-liver ratio ([3]; 5 nmol/mouse): 48 ± 5
tumor-to-lung ratio ([3]; 5 nmol/mouse): 52 ± 8
tumor-to-muscle ratio ([3]; 5 nmol/mouse): 284 ± 19
tumor-to-pancreas ratio ([3]; 5 nmol/mouse): 137 ± 10
tumor-to-salivary ratio ([3]; 5 nmol/mouse): 31 ± 3
tumor-to-small intestine ratio ([3]; 5 nmol/mouse): 126 ± 57
tumor-to-spleen ratio ([3]; 5 nmol/mouse): 16 ± 4
tumor-to-stomach ratio ([3]; 5 nmol/mouse): 24 ± 2
activity in carcass ([4]; 3 h pi): 9 ± 1 %IA/sample
activity in intestines with content ([4]; 3 h pi): 3.8 ± 0.4 %IA/sample
uptake in blood ([4]; 3 h pi): 0.5 ± 0.1 %IA/g
uptake in kidney ([4]; 3 h pi): 242 ± 43 %IA/g
uptake in liver ([4]; 3 h pi): 0.7 ± 0.1 %IA/g
uptake in lung ([4]; 3 h pi): 1.0 ± 0.3 %IA/g
uptake in salivary glands ([4]; 3 h pi): 3.0 ± 0.1 %IA/g
uptake in spleen ([4]; 3 h pi): 1.2 ± 0.3 %IA/g
uptake in stomach ([4]; 3 h pi): 3.1 ± 0.5 %IA/g
activity in carcass ([4]; 24 h pi): 1.4 ± 0.2 %IA/sample
activity in intestines with content ([4]; 24 h pi): 0.5 ± 0.2 %IA/sample
uptake in blood ([4]; 24 h pi): 0.05 ± 0.01 %IA/g
uptake in kidney ([4]; 24 h pi): 56 ± 14 %IA/g
uptake in liver ([4]; 24 h pi): 0.21 ± 0.03 %IA/g
uptake in lung ([4]; 24 h pi): 0.18 ± 0.03 %IA/g
uptake in salivary glands ([4]; 24 h pi): 0.30 ± 0.01 %IA/g
uptake in spleen ([4]; 24 h pi): 0.3 ± 0.2 %IA/g
uptake in stomach ([4]; 24 h pi): 1.0 ± 0.5 %IA/g
washout of activity from kidneys ([4]; 24 h pi compared to 3 h pi): 77%

CC(=O)N[C@@H](CCCCNC(=O)CNC(=O)C(CCC(=O)O)[N]1C(=O)C(CCC(=O)O)[N]2C(=O)C(CCC(=O)O)[N]3C(=O)C[S][TcH]312=[O])C(=O)NCCCCCCCC(=O)N[C@@H](Cc1ccc(O)cc1)C(=O)N[C@@H](Cc1ccc2ccccc2c1)C(=O)NCCCC[C@H](NC(=O)N[C@@H](CCC(=O)O)C(=O)O)C(=O)O (stereo partly drawn) [[^99mTc]Tc-BQ0413]
Kd (PSMA): 0.089 nM
